Values quoted from earlier work in US20240041743A1, “SYNERGISTIC TETRAPEPTIDE COMBINATION” (BASF CORPORATION, priority 2017, published 2024).
Residues, ends and D or L forms follow the SMILES beside them.

How the values were obtained:
skin firmness = conditions: 3% Dermican
[1] = tested on: skin texture, skin smoothing, firmness and elasticity; conditions: 3% Syniorage

| SMILES | bi-daily application needed to achieve an improvement of skin firmness (skin firmness) | improvement on skin firmness after the first 2 months of application (skin firmness; bi-daily application, first 2 months) | bi-daily application needed to improve skin texture, skin smoothing, and biomechanical properties of firmness and elasticity [1] |
| --- | --- | --- | --- |
| CC(=O)N[C@@H](CCC(N)=O)C(=O)N[C@@H](CC(=O)O)C(=O)N[C@H](C(=O)N[C@@H](Cc1c[nH]cn1)C(=O)O)C(C)C [Dermican™, N-Acetyl-Glutaminyl-Aspartyl-Valyl-Histidine] (Ac-QDVH-OH) | 4 months | no improvement was observed |  |
| CC(=O)N1CCC[C@H]1C(=O)N1CCC[C@H]1C(=O)N[C@@H](Cc1ccc(O)cc1)C(=O)N[C@@H](CC(C)C)C(=O)O [Syniorage™, N-Acetyl-Prolyl-Prolyl-Tyrosyl-Leucine] (Ac-PPYL-OH) |  |  | 2 months |
